Legend:
soluble VLA-4 = soluble VLA-4 (Homo sapiens, UniProt P05556+P13612); test: Inhibition of binding between CS-1 peptide and soluble VLA-4; conditions: absorbance at 490 nm, read-out: Inhibitory activity (IC50: nM)
Procedure: The inhibitory activity of the compound according to the present invention against the adhesion of VLA-4 may be determined by using an adhesion-measuring system in which the adhesion between VLA-4-expressing cells such as Ramos cells or Jurkat cells and fibronectin or fibronectin fragment such as a peptide containing CS-1 sequence (Gly Pro Glu He Leu Asp Val Pro Ser Thr) (hereinafter referred to as “CS-1 peptide”) immobilized on an immunoplate is measured. Alternatively, a binding-measuring system in which the adhesion between VLA-4 protein and fibronectin or fibronectin fragment such as CS-1 peptide immobilized on an immunoplate is measured may be used. In the present invention, it is preferred to evaluate the inhibitory activity of a compound using a binding-measuring system of soluble VLA-4 with CS-1 peptide (WO 98/32771), but the method is not restricted thereto. When testing the inhibitory effect of a compound, it is preferred to mix the soluble VLA-4 and the test compound beforehand.
Inhibitory Effect of Compounds Against Binding between CS-1 Peptide and Soluble VLA-4
The test compounds were evaluated in accordance with the method described in WO 98/32771. That is, in accordance with the teaching of a report (J. Bio. Chem., 262, 6886 (1987)), a conjugate between a peptide (Gys Leu His Gly Pro Glu Glu Ile Leu Asp Val Pro Ser Thr) containing CS-1 sequence and rabbit IgG (Sigma) was prepared. […]
Each compound and soluble VLA-4 (100 μl) were preliminarily reacted at room temperature for 20 minutes, and then the resulting mixture was allowed to react with the CS-1 peptide in each well at 30° C. for 3 hours. […] Then o-phenylenediamine as a substrate was added to color the reaction solution, and the absorbance at 490 nm was measured. From this absorbance, the binding inhibitory activity of each compound was determined.

[1] = test system: DNFB-induced ear swelling in Balb/c mouse; test: Mouse allergic inflammation: DNFB-induced ear swelling after anti-DNP IgE sensitization; format: in vivo; conditions: male Balb/c mouse, anti-DNP IgE sensitized
Procedure: Inhibitory Effect of Compounds Against Mouse Allergic Inflammation
Using a seven-week old male Balb/c mouse (Charles River Japan, Inc.), sensitization was carried out by intravenously administering anti-DNP mouse IgE antibody. Twenty-four hours after sensitization, 0.38% DNFB (2,4-dinitrofluorobenzene) which was dissolved in a mixed solution of acetone:olive oil at 4:1 was applied to the right auricle of the mouse to induce inflammation. The thickness of both auricles was measured each hour after induction with a thickness gauge to calculate the ear swelling ratio (%) after induction versus pre-induction. The test compounds were dissolved in ethanol for applying to the auricle before induction.

soluble VLA-4, sequence (P13612 35-977 limits assumed): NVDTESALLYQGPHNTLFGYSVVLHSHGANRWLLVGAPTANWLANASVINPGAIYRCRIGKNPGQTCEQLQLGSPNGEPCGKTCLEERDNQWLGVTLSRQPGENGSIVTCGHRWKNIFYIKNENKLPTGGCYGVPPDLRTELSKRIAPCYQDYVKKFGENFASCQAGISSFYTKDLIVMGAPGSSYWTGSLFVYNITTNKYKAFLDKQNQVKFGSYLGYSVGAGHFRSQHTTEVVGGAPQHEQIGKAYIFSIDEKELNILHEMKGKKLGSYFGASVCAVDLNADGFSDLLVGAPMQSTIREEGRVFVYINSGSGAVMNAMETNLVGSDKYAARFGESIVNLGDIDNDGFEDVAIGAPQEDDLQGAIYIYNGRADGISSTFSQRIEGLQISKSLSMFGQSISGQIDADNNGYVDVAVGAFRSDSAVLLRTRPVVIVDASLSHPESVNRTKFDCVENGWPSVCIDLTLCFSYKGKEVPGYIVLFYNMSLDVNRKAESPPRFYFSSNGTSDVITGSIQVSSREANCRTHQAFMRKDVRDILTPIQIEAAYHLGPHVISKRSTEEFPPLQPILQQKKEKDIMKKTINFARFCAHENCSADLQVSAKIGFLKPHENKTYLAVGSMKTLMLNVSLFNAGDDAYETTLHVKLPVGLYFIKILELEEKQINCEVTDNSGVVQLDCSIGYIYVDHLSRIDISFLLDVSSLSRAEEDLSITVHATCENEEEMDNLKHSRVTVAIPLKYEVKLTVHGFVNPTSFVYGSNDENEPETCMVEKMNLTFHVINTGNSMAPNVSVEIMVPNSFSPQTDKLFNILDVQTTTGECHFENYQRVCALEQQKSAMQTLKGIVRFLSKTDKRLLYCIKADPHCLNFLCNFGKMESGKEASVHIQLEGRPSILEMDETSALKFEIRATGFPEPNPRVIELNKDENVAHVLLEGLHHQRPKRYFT
soluble VLA-4, sequence (P05556 21-728 limits assumed): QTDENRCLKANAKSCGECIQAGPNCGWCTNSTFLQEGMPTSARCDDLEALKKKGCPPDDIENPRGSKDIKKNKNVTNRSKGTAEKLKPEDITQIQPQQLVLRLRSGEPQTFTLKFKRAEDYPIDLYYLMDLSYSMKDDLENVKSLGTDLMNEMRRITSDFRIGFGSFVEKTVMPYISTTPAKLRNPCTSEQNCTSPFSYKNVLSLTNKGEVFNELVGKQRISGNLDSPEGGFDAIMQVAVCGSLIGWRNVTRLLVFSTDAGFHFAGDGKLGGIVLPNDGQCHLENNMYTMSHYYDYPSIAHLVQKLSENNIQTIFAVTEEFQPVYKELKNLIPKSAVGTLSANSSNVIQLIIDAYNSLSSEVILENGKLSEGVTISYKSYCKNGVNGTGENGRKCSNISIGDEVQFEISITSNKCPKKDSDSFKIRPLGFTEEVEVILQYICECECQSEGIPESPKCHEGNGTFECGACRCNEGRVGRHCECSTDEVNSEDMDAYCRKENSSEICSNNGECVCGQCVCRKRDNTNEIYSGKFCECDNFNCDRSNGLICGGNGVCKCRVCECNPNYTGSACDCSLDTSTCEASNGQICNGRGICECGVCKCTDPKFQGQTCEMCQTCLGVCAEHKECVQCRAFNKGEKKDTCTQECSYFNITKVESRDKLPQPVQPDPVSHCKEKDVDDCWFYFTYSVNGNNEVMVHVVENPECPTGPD

IC50 (soluble VLA-4) [nM] | SMILES | ED 50 value, suppression of the increase in the ratio of ear swelling ([1]; 0.38% DNFB on right auricle, compound in ethanol applied to the auricle before induction) [mg/kg] | suppression of the increase in the ratio of ear swelling from DNFB induction ([1]; DNFB-induced, compound applied to the auricle before induction)
110 | CC(=O)N1CCC[C@H]1C(=O)NC(CNC(=O)N1CCC2(CC1)C(=O)NCN2c1ccccc1)C(=O)O (stereo partly drawn) [Compound 16, 2-(((2S)-1-Acetylpyrrolidine-2-yl)carbonylamino)-3-((2,4,8-triaza-1-oxo-4-phenylspiro[4.5]dec-8-yl)carbonylamino)propanoic acid] | 0.8 | suppressed the increase in the ratio of ear swelling in a dose-dependent manner
65 | CC(=O)N1CCCCC1C(=O)NC(CNC(=O)N1CCC2(CC1)C(=O)NCN2c1ccccc1)C(=O)O (centres unmarked) [Compound 18, 2-((1-Acetyl(2-piperidyl))carbonylamino)-3-((2,4,8-triaza-1-oxo-4-phenylspiro[4.5]dec-8-yl)carbonylamino)propanoic acid] | – | –
110 | Cc1cccc(Cl)c1S(=O)(=O)NC(CNC(=O)N1CCC2(CC1)C(=O)N(C)CN2c1ccccc1)C(=O)O (centres unmarked) [Compound 8, 2-(((2-Chloro-6-methylphenyl)sulfonyl)amino)-3-((2,4,8-triaza-2-methyl-1-oxo-4-phenylspiro[4.5]dec-8-yl)carbonylamino)propanoic acid] | – | –

From US20060241132A1, “Spiro derivatives and adhesion molecule inhibitors comprising the same as active ingredient” (Toray Industries, Inc. A Corporation of Japan, priority 2002, published 2006)
